In patent US7745465B2, “Method of enhancing cellular production of molecular chaperone, hydroxylamine derivatives useful for enhancing the chaperone production and the preparation thereof” (CytRx Corporation, priority 1995, dated 2010):

Legend:
plasma membrane fluidity = experiment: Steady-state fluorescence anisotropy of DPH-PA in serum deprived cells; format: cell-based; settings: both cell models
Protocol: Experiments were carried out using WEH1 mouse fibrosarcoma and H9c2 rat heart muscle cell lines divided into three groups: • control (10% FCS fetal calf serum) • serum deprived • N-[2-hydroxy-3-(1-piperidinyl)propoxy]-3-pyridinecarboximidoyl chloride maleate (10^−5 M) treated and serum deprived 1.2(i) Serum Deprivation and MTT Test
Cell suspensions of […] in PBS were labeled by the addition of DPH-PA (3-[p-(6-Phenyl)-1,3,5-hexatrienyl]phenylpropionic acid) dissolved in tetrahydrofuran at a final concentration of 0.1 :M and incubated for 10 min. at 37 C. The amount of organic solvent added was 0.05% to avoid its effect on cell membranes. […] Fluorescence measurements were carried out at 37° C. using a Quanta Master QM-1 T-format luminescence spectrometer (Photon Technology Int. Inc., N.J. USA) equipped with polarizers in the excitation and in the two emission light path. […] The measured fluorescence intensities were corrected for background fluorescence and light scattering from the unlabeled sample. The fluorescence anisotropy was calculated as rs=(IVV−G·IVH)/(IVV+(2×G×IVH))
where IVV and IVH are observed intensities measured with polarizers parallel and perpendicular to the vertically polarized exciting beam, respectively. […]

Male Sprague-Dawley rats = experiment: Protection against cardiac ischaemia: survival after 5 minutes coronary occlusion and reperfusion; format: in vivo, rat

O=C(O)/C=C\C(=O)O.OC(CON=C(Cl)c1cccnc1)CN1CCCCC1 (stereo not drawn) [N-[2-hydroxy-3-(1-piperidinyl)-propoxy]3-pyridinecarboximidoyl chloride maleate]
membrane physical state (fluorescence anisotropy of DPH-PA) (plasma membrane fluidity): almost complete preservation of the membrane physical state
Survival (%) (Male Sprague-Dawley rats; 20 mg/kgbw p.o.): 100%
Survival (%) (Male Sprague-Dawley rats; i.v. 1 mg/kgbw, 5 min. before the occlusion, non-treated control 10): 100%
